In PubChem BioAssay (NCI):
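The concentration for 50% growth inhibition is given as GI50. At the TGI there is no net growth.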

How the values were obtained:
Assay in all cases: NCI-60 cell line screen, 384-well format
KM12 colon = tested on: KM12 colon
LOX IMVI melanoma = tested on: LOX IMVI melanoma
SN12C renal = tested on: SN12C renal
SNB-75 CNS = tested on: SNB-75 CNS
TK-10 renal = tested on: TK-10 renal
NCI/ADR-RES ovarian = tested on: NCI/ADR-RES ovarian
NCI-H522 lung = tested on: NCI-H522 lung
HCC-2998 colon = tested on: HCC-2998 colon
PC-3 prostate = tested on: PC-3 prostate
COLO 205 colon = tested on: COLO 205 colon
SW-620 colon = tested on: SW-620 colon
NCI-H226 lung = tested on: NCI-H226 lung
RXF 393 renal = tested on: RXF 393 renal
HCT-116 colon = tested on: HCT-116 colon
MDA-MB-468 breast = tested on: MDA-MB-468 breast
CAKI-1 renal = tested on: CAKI-1 renal
OVCAR-4 ovarian = tested on: OVCAR-4 ovarian
HT29 colon = tested on: HT29 colon
UACC-257 melanoma = tested on: UACC-257 melanoma
UACC-62 melanoma = tested on: UACC-62 melanoma
SF-295 CNS = tested on: SF-295 CNS
NCI-H23 lung = tested on: NCI-H23 lung
NCI-H322M lung = tested on: NCI-H322M lung
BT-549 breast = tested on: BT-549 breast
HCT-15 colon = tested on: HCT-15 colon
HS 578T breast = tested on: HS 578T breast
SNB-19 CNS = tested on: SNB-19 CNS
U251 glioblastoma = tested on: U251 glioblastoma
SR leukemia = tested on: SR leukemia
786-0 renal = tested on: 786-0 renal
OVCAR-8 ovarian = tested on: OVCAR-8 ovarian
K-562 leukemia = tested on: K-562 leukemia
ACHN renal = tested on: ACHN renal
A549 NSCLC = tested on: A549 NSCLC
CCRF-CEM leukemia = tested on: CCRF-CEM leukemia
MDA-MB-231 breast = tested on: MDA-MB-231 breast
MALME-3M melanoma = tested on: MALME-3M melanoma
HOP-92 NSCLC = tested on: HOP-92 NSCLC
A498 renal = tested on: A498 renal
HOP-62 NSCLC = tested on: HOP-62 NSCLC
NCI-H460 NSCLC = tested on: NCI-H460 NSCLC
EKVX NSCLC = tested on: EKVX NSCLC
MDA-MB-435 melanoma = tested on: MDA-MB-435 melanoma
MCF7 breast = tested on: MCF7 breast
OVCAR-3 ovarian = tested on: OVCAR-3 ovarian
M14 melanoma = tested on: M14 melanoma
HL-60(TB) leukemia = tested on: HL-60(TB) leukemia
MOLT-4 leukemia = tested on: MOLT-4 leukemia
T-47D breast = tested on: T-47D breast
IGROV1 ovarian = tested on: IGROV1 ovarian
SK-OV-3 ovarian = tested on: SK-OV-3 ovarian
RPMI-8226 leukemia = tested on: RPMI-8226 leukemia
SF-268 CNS = tested on: SF-268 CNS
SK-MEL-5 melanoma = tested on: SK-MEL-5 melanoma
DU-145 prostate = tested on: DU-145 prostate
SF-539 CNS = tested on: SF-539 CNS
SK-MEL-28 melanoma = tested on: SK-MEL-28 melanoma
UO-31 renal = tested on: UO-31 renal

Work on `Cc1ccccc1C(C(=O)NC1CCCCC1)N(C(=O)Cn1ccnc1C)c1cccc(F)c1` (stereo unspecified) yielded a GI50 (KM12 colon) of over 100 µM, a TGI (KM12 colon) of over 100 µM and a GI50 (LOX IMVI melanoma) of 52.7 µM. The TGI (LOX IMVI melanoma) was over 100 µM, the GI50 (SN12C renal) was over 100 µM and the TGI (SN12C renal) was over 100 µM. It also gave a GI50 (SNB-75 CNS) of 26.8 µM, a TGI (SNB-75 CNS) of over 100 µM and a GI50 (TK-10 renal) of 49.2 µM. It also gave a TGI (TK-10 renal) of over 100 µM, a GI50 (NCI/ADR-RES ovarian) of over 100 µM and a TGI (NCI/ADR-RES ovarian) of over 100 µM. For the same compound, the GI50 (NCI-H522 lung) was over 100 µM, the TGI (NCI-H522 lung) was over 100 µM and the GI50 (HCC-2998 colon) was over 100 µM. For the same compound, the TGI (HCC-2998 colon) was over 100 µM, the GI50 (PC-3 prostate) was over 100 µM and the TGI (PC-3 prostate) was over 100 µM. It also gave a GI50 (COLO 205 colon) of over 100 µM, a TGI (COLO 205 colon) of over 100 µM and a GI50 (SW-620 colon) of over 100 µM. It also gave a TGI (SW-620 colon) of over 100 µM, a GI50 (NCI-H226 lung) of over 100 µM and a TGI (NCI-H226 lung) of over 100 µM. It also gave a GI50 (RXF 393 renal) of 20.5 µM, a TGI (RXF 393 renal) of 96.6 µM and a GI50 (HCT-116 colon) of over 100 µM. For the same compound, the TGI (HCT-116 colon) was over 100 µM, the GI50 (MDA-MB-468 breast) was over 100 µM and the TGI (MDA-MB-468 breast) was over 100 µM. For the same compound, the GI50 (CAKI-1 renal) was over 100 µM, the TGI (CAKI-1 renal) was over 100 µM and the GI50 (OVCAR-4 ovarian) was over 100 µM. For the same compound, the TGI (OVCAR-4 ovarian) was over 100 µM, the GI50 (HT29 colon) was over 100 µM and the TGI (HT29 colon) was over 100 µM. For the same compound, the GI50 (UACC-257 melanoma) was over 100 µM, the TGI (UACC-257 melanoma) was over 100 µM and the GI50 (UACC-62 melanoma) was over 100 µM. For the same compound, the TGI (UACC-62 melanoma) was over 100 µM, the GI50 (SF-295 CNS) was 30 µM and the TGI (SF-295 CNS) was over 100 µM. It also gave a GI50 (NCI-H23 lung) of over 100 µM, a TGI (NCI-H23 lung) of over 100 µM and a GI50 (NCI-H322M lung) of over 100 µM. The TGI (NCI-H322M lung) was over 100 µM, the GI50 (BT-549 breast) was over 100 µM and the TGI (BT-549 breast) was over 100 µM. The GI50 (HCT-15 colon) was over 100 µM, the TGI (HCT-15 colon) was over 100 µM and the GI50 (HS 578T breast) was 27.4 µM. The TGI (HS 578T breast) was 83 µM, the GI50 (SNB-19 CNS) was over 100 µM and the TGI (SNB-19 CNS) was over 100 µM. The GI50 (U251 glioblastoma) was over 100 µM, the TGI (U251 glioblastoma) was over 100 µM and the GI50 (SR leukemia) was 20 µM. The TGI (SR leukemia) was 86.6 µM, the GI50 ([…]-0 renal) was over 100 µM and the TGI (786-0 renal) was over 100 µM. The GI50 (OVCAR-8 ovarian) was 75.6 µM, the TGI (OVCAR-8 ovarian) was over 100 µM and the GI50 (K-562 leukemia) was over 100 µM. It also gave a TGI (K-562 leukemia) of over 100 µM, a GI50 (ACHN renal) of over 100 µM and a TGI (ACHN renal) of over 100 µM. For the same compound, the GI50 (A549 NSCLC) was over 100 µM, the TGI (A549 NSCLC) was over 100 µM and the GI50 (CCRF-CEM leukemia) was over 100 µM. The TGI (CCRF-CEM leukemia) was over 100 µM, the GI50 (MDA-MB-231 breast) was 51.1 µM and the TGI (MDA-MB-231 breast) was over 100 µM. It also gave a GI50 (MALME-3M melanoma) of over 100 µM, a TGI (MALME-3M melanoma) of over 100 µM and a GI50 (HOP-92 NSCLC) of 77.4 µM. The TGI (HOP-92 NSCLC) was over 100 µM, the GI50 (A498 renal) was 66.6 µM and the TGI (A498 renal) was over 100 µM. The GI50 (HOP-62 NSCLC) was over 100 µM, the TGI (HOP-62 NSCLC) was over 100 µM and the GI50 (NCI-H460 NSCLC) was over 100 µM. For the same compound, the TGI (NCI-H460 NSCLC) was over 100 µM, the GI50 (EKVX NSCLC) was over 100 µM and the TGI (EKVX NSCLC) was over 100 µM. It also gave a GI50 (MDA-MB-435 melanoma) of over 100 µM, a TGI (MDA-MB-435 melanoma) of over 100 µM and a GI50 (MCF7 breast) of over 100 µM. The TGI (MCF7 breast) was over 100 µM, the GI50 (OVCAR-3 ovarian) was over 100 µM and the TGI (OVCAR-3 ovarian) was over 100 µM. For the same compound, the GI50 (M14 melanoma) was over 100 µM, the TGI (M14 melanoma) was over 100 µM and the GI50 (HL-60(TB) leukemia) was over 100 µM. For the same compound, the TGI (HL-60(TB) leukemia) was over 100 µM, the GI50 (MOLT-4 leukemia) was over 100 µM and the TGI (MOLT-4 leukemia) was over 100 µM. The GI50 (T-47D breast) was 24.5 µM, the TGI (T-47D breast) was over 100 µM and the GI50 (IGROV1 ovarian) was over 100 µM. It also gave a TGI (IGROV1 ovarian) of over 100 µM, a GI50 (SK-OV-3 ovarian) of over 100 µM and a TGI (SK-OV-3 ovarian) of over 100 µM. It also gave a GI50 (RPMI-8226 leukemia) of over 100 µM, a TGI (RPMI-8226 leukemia) of over 100 µM and a GI50 (SF-268 CNS) of over 100 µM. It also gave a TGI (SF-268 CNS) of over 100 µM, a GI50 (SK-MEL-5 melanoma) of over 100 µM and a TGI (SK-MEL-5 melanoma) of over 100 µM. It also gave a GI50 (DU-145 prostate) of over 100 µM, a TGI (DU-145 prostate) of over 100 µM and a GI50 (SF-539 CNS) of 36.2 µM. For the same compound, the TGI (SF-539 CNS) was over 100 µM, the GI50 (SK-MEL-28 melanoma) was over 100 µM and the TGI (SK-MEL-28 melanoma) was over 100 µM. For the same compound, the GI50 (UO-31 renal) was over 100 µM and the TGI (UO-31 renal) was over 100 µM.
